# Experimental data published in patent US20260021119A1, “TETRACYCLINE DERIVATIVES” (ICM (INSTITUT DU CERVEAU ET DE LA MOELLE ÉPINIÈRE), priority 2022, published 2026).
# Entries after “also recorded” stand apart in the source; their conditions may differ.
# Tests used:
# [1] = tested on: formalin-induced pain behavior; experiment: Formalin-induced nociceptive pain test; type: in vivo, C57/BL6 mice; conditions: for pain-related responses in the formalin test (overall): mice; for sex dependence of analgesic response: single injection, (C) 10 mg/kg, (Ia) 40 mg/kg, male vs female mice, phase 2
# Experimental: The analgesic effects of the compound of formula (C) described in Example 6 (administered at doses of 5 mg/kg of animal, 10 mg/kg of animal and 20 mg/kg of animal) and the compound of formula (Ia) according to the present invention (administered at doses of 10 mg/kg of animal, 20 mg/kg of animal, and 40 mg/kg of animal) were tested using the formalin-induced nociceptive pain model (as disclosed in the publication Lopes DM, Cater HL, Thakur M et al. “A refinement to the formalin test in mice [version 2; peer review: 2 approved]” F1000Research 2019, 8:891).
# To test the anti-pain effects of compounds (Ia) and (C) according to the present invention, a formalin pain test was performed, which consists in subcutaneously injecting 50 μl of a 5.0% formalin solution into the right hind paw of adult C57/BL6 mice (Taylor and Basbaum, J Pain, 2000) before scoring pain behavior. The intensity of pain was estimated by recording the cumulative time (sec) during which animals develop a licking/bitting behavior in response to formalin injection. This response is divided into a transient early (Phase I) phase followed by a more prolonged late (Phase II) phase. Pain scoring is performed by experimenters blinded to test treatments using a video recording of formalin-induced pain behavior.
# [2] = tested on: p-tau (phosphorylated tau protein at Ser202, Thr205 residues); experiment: p-tau (AT8) expression in cultured cortical neurons under oxidative stress; type: cell-based, mouse; design: key to Reduction of the % of p-tau+ somas: a favorable response, synonymous with a decrease in the number of p-tau+ cell bodies; ++: a favorable response, synonymous with a decrease in the number of p-tau+ cell bodies; +++=reference level; an unfavorable response is represented by a sign “−”, synonymous with an elevation of the number of p-tau+ cell bodies; overexpression of p-tau in cortical cell bodies: dose or concentration left out as unconfirmed
# Experimental: A culture model of cortical neurons from mouse embryonic brain was used, in which neuronal cells were subjected to a maturation step until day in vitro (div) 7, before being gradually exposed to phenol red formulated DMEM/Nutrient mixture F12 Ham supplemented with 20 μg/mL of insulin, and 2 μM of the NMDA receptor blocker MK-801 (DF12i).
# Precisely, after 4 days of exposure to DF12i, between 10-15% of surviving neurons show a very strong AT8 immunosignal in their somas while only 1 to 1.5% of neuronal cell bodies are found immunopositive under conditions where oxidative stress is repressed by treatment with bovine apotransferrin (APO; 100 µg/mL, Sigma Aldrich), a glycoprotein with iron chelating properties. Likewise, overexpression of p-tau in cortical cell bodies is reduced by the two non-antibiotic tetracyclines compound of formula (C) ([…]) and compound of formula (Ib) ([…]): see the following Table: […]
# [3] = target: alpha-synuclein (Homo sapiens, UniProt P37840); experiment: alpha-synuclein fibrils by transmission electron microscopy (TEM); type: biochemical; conditions: 20 μM compound; vs alpha-synuclein alone
# Experimental: By using transmission electron microscopy (TEM) we studied the alpha-synuclein aggregation in the presence of 20 μM of the compound of formula (Ia) in the same condition described above. For the samples mounting, 5 μL of a 7 μM alpha-synuclein solution were adsorbed onto a formvar carbon film coated copper grids (Electron Microscopy Sciences) and stained with uranyless.
# [4] = tested on: E. coli ATCC 25922; experiment: MIC, broth dilution (Example 3); type: cell-based; conditions: Escherichia coli, ATCC25922; 18 h at 37° C., MH broth
# Experimental: (§1) Bacterial strains used in this study were: S. aureus (ATCC25923), E. coli (ATCC25922), E. faecalis (ATCC29212) and P. aeruginosa (PA01). Strains were maintained at −80° C. in 15% (v/v) glycerol for cryoprotection. Bacteria were routinely grown in Mueller-Hinton (MH) broth at 37° C.
# (§2) The susceptibility of bacterial strains to antibiotics and compounds was determined in microplates using the standard broth dilution method in accordance with the recommendations of the Comité de 1′Antibiogramme de la Société Française de Microbiologie (CA-SFM). (Members of the SFM Antibiogram Committee, R. Int. J. Antimicrob. Agents 2003, 21, 364). Briefly, the Minimal Inhibitory Concentrations (MICs) were determined with an inoculum of 10^5 CFU in 200 μL of MH broth containing two-fold serial dilutions of each drug. […] To determine all MICs, the measurements were independently repeated in triplicate.
# (§3) The compound of formula (Ia) according to the invention was tested against clinical isolates Gram-bacteria (P. aeruginosa, E. coli) and Gram+ bacteria (S. aureus, E. faecalis). Minimum inhibitory concentrations (MIC) were tentatively determined and compared to known antibiotic tetracyclines (doxycycline, demeclocycline, chlortetracycline) and to the compound of formula (B) disclosed in Example 1 of the present application. The test was reproduced twice and the average MIC were calculated.
# [5] = tested on: E. faecalis ATCC 29212; experiment: MIC, broth dilution (Example 3); type: cell-based; conditions: Enterococcus faecalis, ATCC29212; 18 h at 37° C., MH broth
# Experimental: as §1, §2, §3
# [6] = tested on: P. aeruginosa PA01; experiment: MIC, broth dilution (Example 3); type: cell-based; conditions: Pseudomonas aeruginosa, 18 h at 37° C., MH broth
# Experimental: as §1, §2, §3
# [7] = tested on: S. aureus ATCC 25923; experiment: MIC, broth dilution (Example 3); type: cell-based
# Experimental: as §1, §2, §3
SMILES,"reduction of nociceptive pain, phase 1 and 2 ([1]; 5 mg/kg, sub-chronic regimen (6 subcutaneous injections), male adult C57/BL6 mice, not different from morphine 10 mg/kg)",pain-related responses in the formalin test (overall) [1],"anti-nociceptive effects, phases 1 and 2 ([1]; single injection 10 mg/kg prior to formalin, not different from morphine 10 mg/kg)",sex dependence of analgesic response [1],overexpression of p-tau in cortical cell bodies [2],"Reduction of the % of p-tau+ somas ([2]; compounds 3 μM, APO 100 μg/mL, mouse cortical cultures exposed div 7-11 to DF12i)",amount of alpha-synuclein fibril (TEM) [3],MIC [4] [µM],MIC [5] [µM],MIC [6] [µM],activity on S. aureus compared with compound of formula (B) [7],"MIC ([7]; Staphylococcus aureus, ATCC25923, 18 h at 37° C., MH broth) [µM]","analgesic effects, phases 1 and 2 ([1]; between 20 and 40 mg/kg, sub-chronic regimen, subcutaneous, male adult C57/BL6 mice)","anti-nociceptive effects, both phases ([1]; single injection 40 mg/kg prior to formalin)"
NC(=O)C1=C(O)CC2CC3C(=C(O)C2C1=O)C(=O)c1c(O)ccc(Cl)c1[C@H]3O (stereo partly shown) [Compound of formula (C)],highly effective,reduce pain-related responses; also recorded: showed anti-pain effects,robust anti-nociceptive effects,male mice exhibited a better analgesic response,reduced,+++,,,,,,,,
"C[C@H]1c2cccc(O)c2C(=O)C2=C(O)C3C(=O)C(C(N)=O)=C(O)C[C@@H]3[C@@H](O)[C@@H]21 (stereo partly drawn) [Compound of formula (Ia), (4aS,5R,5aR,6R)-3,5,10,12-tetrahydroxy-6-methyl-1,11-dioxo-1,4,4a,5,5a,6,11,12a-octahydrotetracene-2-carboxamide]",,reduce pain-related responses; also recorded: showed anti-pain effects,,females responded more effectively,,,clearly decreases,> 200,> 200,> 200,less active,> 200,exerted analgesic effects,exerted anti-nociceptive effects
